{"source": "patent US20200329707A1", "about": "“PYRAZOLAMIDE COMPOUND HAVING INSECTICIDAL ACTIVITY AND USE THEREOF” (JIANGSU FLAG CHEMICAL INDUSTRY CO., LTD., priority 2017, published 2020)", "assay_type_in_all_cases": "in vivo", "key": {"Frankliniella intonsa": {"test_system": "Frankliniella intonsa", "test": "Insecticidal effect on Frankliniella intonsa, treated filter paper in petri dish", "conditions": "60 ppm reagent solution; nymphs; 72 hrs", "description": "(§1) The test reagents were all individually dissolved in a mixed solvent of acetone:[…] (1:1) to give a 1000 mg/L solution. 1% Tween-80 was added as an emulsifier to each solution. These solutions were then diluted with 1% Tween-20 solution in water to give desired concentrations of test solutions. An aqueous solution containing 1% Tween-20 was used as a control.\nOn the bottom of a glass petri dish with a diameter of 6 cm, a piece of filter paper with the same diameter was laid. 1 mL of the reagent solution was drawn by a pipette and uniformly dripped on the filter paper. After the acetone was volatilized, Nymphs of Frankliniella intonsa were transferred from Bombax ceiba with a brush pen to the filter paper in the petri dish. After 0.5-1 h when the insect body was fully covered with the reagent, 3 cm-long petals of Bombax ceiba were placed and the Petri dish were covered. 3 replicates were set for each treatment. After the insects were inoculated, the petri dish was placed in an insect-cultivating chamber at 25° C. with a 16-h-light/8-h-dark photoperiod. 72 hrs after the insects were inoculated, the deaths of Frankliniella intonsa were investigated to calculate the mortality."}, "Helicoverpa armigera": {"test_system": "Helicoverpa armigera", "test": "Insecticidal effect on Helicoverpa armigera, immersed cabbage leaf discs in 24-well plate", "conditions": "foliar, 72 h, read-out: Insecticidal activity (%) on Helicoverpa armigera (mortality %)", "description": "as §1\nThird instar larvae of Helicoverpa armigera were used, and the insecticidal effect test was carried out by feeding with leaves immersed with various compounds. The cabbage leaves that had not been exposed to insecticides were punched into leaf discs having a diameter of […]. The leaf discs were immersed in each compound solution for 30 s. Then the leaf discs were placed on absorbent paper and air-dried until there were no obvious water stains on the leaf discs. A washed 24-well plate was prepared, and about 1 ml of water agar medium was fed to each well. After solidification, the treated leaf discs were placed on the medium in the 24-well plate, and then 1 3rd-instar larva of Helicoverpa armigera was inoculated into each well. The 24-well plate was covered after inoculation, placed in an insect cultivating chamber at 25° C. with a 16-h-light/8-h-dark photoperiod. The number of deaths in 3 days was investigated, and the mortality was calculated."}, "Spodoptera litura": {"test_system": "Spodoptera litura", "test": "Insecticidal effect on Spodoptera litura, feeding with immersed cabbage leaf discs", "conditions": "40 ppm reagent solution; 3rd instar larvae; deaths in 5 days", "description": "as §1\nThird instar larvae of Spodoptera litura were used, and the insecticidal effect test was carried out by feeding with leaves immersed with various compounds. The cabbage leaves that had not been exposed to insecticides were cut into leaf discs of about 40 square-mm with scissors. The leaf discs were immersed in each compound solution for 30 s. Then the leaf discs were placed on absorbent paper and air-dried until there were no obvious water stains on the leaf discs. The leaf discs soaked with the reagents were placed in a petri dish (7 cm), each petri dish having 3 leaf discs. The 3rd instar larvae of Spodoptera litura raised on the indoor cabbage plants were gently picked up with a pen brush and placed on the leaf discs in the petri dish, each petri dish having 10-15 insects. After the insects were inoculated, the petri dish was covered, and placed in an insect-cultivating chamber at 25° C. with a 16-h-light/8-h-dark photoperiod. The number of deaths in 5 days was investigated, and the mortality was calculated."}}}
{"smiles": "Cc1cc(Cl)cc(C(=O)NC(C)(C)C(N)=O)c1NC(=O)c1cc(Br)nn1-c1ncccc1Cl", "note": "[Compound 1.1, N-(2-N-((1-amino-2-methyl-1-acylpropan-2-yl)-formyl)-4-chloro-6-methylphenyl)-1-(3-chloropyridin-2-yl)-3-bromo-1H-pyrazol-5-carboxamide]", "values": [{"measurement": "control effect on Frankliniella intonsa", "setting": "Frankliniella intonsa", "result": "more than 80%"}, {"measurement": "mortality at 5 ppm", "setting": "Helicoverpa armigera", "result": 75, "unit": "%"}, {"measurement": "mortality at 15 ppm", "setting": "Helicoverpa armigera", "result": 87.5, "unit": "%"}, {"measurement": "control effect on Spodoptera litura", "setting": "Spodoptera litura", "result": "more than 80%"}]}
{"smiles": "CC(C)(NC(=O)c1cc(Cl)cc(Cl)c1NC(=O)c1cc(Cl)nn1-c1ncccc1Cl)C(N)=O", "note": "[KC1]", "values": [{"measurement": "mortality at 5 ppm", "setting": "Helicoverpa armigera", "result": 10, "unit": "%"}, {"measurement": "mortality at 15 ppm", "setting": "Helicoverpa armigera", "result": 46.7, "unit": "%"}]}
{"smiles": "CC(C)(NC(=O)c1cc(Cl)cc(Cl)c1NC(=O)c1cc(Br)nn1-c1ncccc1Cl)C(N)=O", "note": "[KC2]", "values": [{"measurement": "mortality at 5 ppm", "setting": "Helicoverpa armigera", "result": 16.7, "unit": "%"}, {"measurement": "mortality at 15 ppm", "setting": "Helicoverpa armigera", "result": 37.5, "unit": "%"}]}
